Results taken from the supplement of paper PMC10307832.

Columns and labels:
Test in all cases: relative viability (nuclei count vs DMSO), 5 days (fraction); higher = more cells survive
RO-3306 + Palbociclib = compound: C1=CC2=C(C=CC(=C2)C=C3C(=O)NC(=NCC4=CC=CS4)S3)N=C1 [RO-3306] + CC(=O)c1c(C)c2cnc(Nc3ccc(N4CCNCC4)cn3)nc2n(C2CCCC2)c1=O [Palbociclib] (partner 0.5 µM)
Method in brief: (§1)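 Five library-drug doses in √10 steps were combined with a fixed anchor-drug dose, or a single drug was given alone, by pin tool to lung cancer cell lines in 1536-well plates the day after seeding. Nuclei were stained and counted after 5 days. Relative viability is the nuclei count in treated wells over that in vehicle wells, taken as the median of duplicate plates.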

[1] = compound: O=S(=O)(c1ccccc1)N(CC(F)(F)F)c1ccc(C(O)(C(F)(F)F)C(F)(F)F)cc1 + CC(=O)c1c(C)c2cnc(Nc3ccc(N4CCNCC4)cn3)nc2n(C2CCCC2)c1=O [Palbociclib] (partner 0.5 µM)
Method in brief: as §1

[2] = compound: O=S(=O)(c1ccccc1)N(CC(F)(F)F)c1ccc(C(O)(C(F)(F)F)C(F)(F)F)cc1 + Cc1nc(NC(=O)N2CCC[C@H]2C(N)=O)sc1-c1ccnc(C(C)(C)C(F)(F)F)c1 [Alpelisib] (partner 2 µM)
Method in brief: as §1

RO-3306 + Alpelisib = compound: C1=CC2=C(C=CC(=C2)C=C3C(=O)NC(=NCC4=CC=CS4)S3)N=C1 [RO-3306] + Cc1nc(NC(=O)N2CCC[C@H]2C(N)=O)sc1-c1ccnc(C(C)(C)C(F)(F)F)c1 [Alpelisib] (partner 2 µM)
Method in brief: as §1

Cell Line | relative viability (RO-3306 + Palbociclib; first compound 0.01 µM) | relative viability (RO-3306 + Palbociclib; first compound 0.03162 µM) | relative viability (RO-3306 + Palbociclib; first compound 0.1 µM) | relative viability (RO-3306 + Palbociclib; first compound 0.3162 µM) | relative viability (RO-3306 + Palbociclib; first compound 1 µM) | relative viability ([1]; first compound 0.8 µM) | relative viability ([1]; first compound 2.53 µM) | relative viability ([1]; first compound 8 µM) | relative viability ([2]; first compound 0.8 µM) | relative viability ([2]; first compound 2.53 µM) | relative viability ([2]; first compound 8 µM) | relative viability (RO-3306 + Alpelisib; first compound 0.01 µM) | relative viability (RO-3306 + Alpelisib; first compound 0.03162 µM) | relative viability (RO-3306 + Alpelisib; first compound 0.1 µM) | relative viability (RO-3306 + Alpelisib; first compound 0.3162 µM) | relative viability (RO-3306 + Alpelisib; first compound 1 µM)
HCC-366 | 0.531 | 0.395 | 0.381 | 0.382 | 0.316 | 0.649 | 0.379 | 0.239 | 0.469 | 0.436 | 0.428 | 0.377 | 0.347 | 0.389 | 0.503 | 0.34
LCLC-103H | 0.472 | 0.462 | 0.514 | 0.492 | 0.486 | 0.503 | 0.523 | 0.488 | 1.11 | 0.999 | 1.03 | 0.919 | 0.976 | 1.03 | 0.962 | 0.948
HCC-827 | 0.462 | 0.477 | 0.461 | 0.54 | 0.54 | 0.513 | 0.418 | 0.388 | 1.05 | 1.05 | 0.842 | 1.04 | 1.05 | 0.921 | 0.946 | 1.06
NCI-H2347 | 0.475 | 0.438 | 0.397 | 0.387 | 0.417 | 0.42 | 0.374 | 0.395 | 1.25 | 1.2 | 1.04 | 1.13 | 0.759 | 1.01 | 1.05 | 0.951
HCC-44 | 1.01 | 0.932 | 0.993 | 0.96 | 0.952 | 0.982 | 0.913 | 0.903 | 0.913 | 0.946 | 0.927 | 0.853 | 0.836 | 0.817 | 1.03 | 0.832
PC-3 [JPC-3] | 0.54 | 0.563 | 0.567 | 0.495 | 0.569 |  | 0.381 | 0.532 | 1.18 | 0.995 | 1.02 | 1.1 | 1 | 1.02 | 0.98 | 0.98
NCI-H1792 | 0.688 |  | 0.653 | 0.708 | 0.698 | 0.614 | 0.549 | 0.453 | 0.629 | 0.445 | 0.34 | 0.803 |  | 0.668 | 0.757 | 0.457
NCI-H1651 | 0.542 | 0.456 | 0.505 | 0.538 | 0.496 | 0.555 | 0.503 | 0.5 | 0.94 | 0.972 | 0.89 | 1.07 | 0.927 | 0.913 | 0.867 | 0.987
NCI-H3122 | 0.188 | 0.18 | 0.19 | 0.199 | 0.209 | 0.143 | 0.148 | 0.202 | 0.744 | 0.627 | 0.672 | 0.635 | 0.738 | 0.832 | 0.762 | 0.788
LC-2-ad | 0.504 | 0.399 | 0.512 | 0.515 | 0.483 | 0.53 | 0.501 | 0.422 | 0.576 | 0.843 | 0.841 | 1.07 | 0.832 | 0.846 | 0.887 | 0.812
NCI-H650 | 0.32 | 0.325 | 0.332 | 0.328 | 0.293 | 0.322 | 0.329 | 0.27 | 1.13 | 1.03 | 1 | 0.872 | 0.981 | 1.03 | 1.1 | 1.05
LXF-289 | 0.62 | 0.631 | 0.627 | 0.577 | 0.616 | 0.574 | 0.502 | 0.534 | 1.03 | 0.912 | 0.789 | 1.08 | 1.01 | 1.03 | 1.05 | 1.05
HCC-78 | 0.483 | 0.518 | 0.504 | 0.548 | 0.403 | 0.522 | 0.445 | 0.475 | 0.349 | 0.298 | 0.289 | 0.326 | 0.279 | 0.359 | 0.376 | 0.339
NCI-H2009 | 0.216 | 0.203 | 0.18 | 0.25 | 0.203 | 0.174 | 0.238 | 0.223 | 1.09 | 1.02 | 0.964 | 1.18 | 1.18 | 1.21 | 1.12 | 1.27
